Measurements taken from patent US4855445A, “Substituted-8-alkenyl-1,3,4,9-tetrahydropyrano[3,4-b]indole-1-acetic acids” (American Home Products Corporation, priority 1987, dated 1989).
Counter-ions that a name gives are not always drawn.

Columns and labels:
rats = test: Preventative Adjuvant Edema; format: in vivo, Male Sprague Dawley rats; conditions: p.o., dosed days 0, 1 and 2, edema volume day 3
Experimental: This test is a primary screen for anti-inflammatory drugs.
Male Sprague Dawley rats (180-200 g) are used. The animals have free access to water but food is withdrawn 18 hours before testing.
Drug Preparations and Adminstration:
Freund's complete adjuvant is prepared by suspending 5 mg of killed and dried Mycobacterium butyricum (Difco) in 1 mL mineral oil. The test compounds are dissolved, or suspended in 0.5% Tween 80 in distilled water according to their solubility. […]
The method is essentially that described by Wax et al, J. Pharmacol. Exp. Ther., 192, 166-171 (1975). Groups of rats are injected intradermally in the left hind paw with 0.1 mL of Freund's complete adjuvant. The test compound or vehicle is administered immediately before the adjuvant, 24 hours and 48 hours after the adjuvant (days 0, 1 and 2). The injected hind paw volume is measured before the injection of adjuvant and 24 hrs. after the last drug administration (day 3) by means of a plethysmometer (Buxco Electronics Inc.). The difference between the hind paw volume on day 0 and day 3 represents the edema volume. […]
The mean edema volume (expressed as mL±SEM) is calculated for each group and the percentage protection conferred by the drug is calculated: [formula] where c is the mean edema volume for the vehicle-treated (0.5% Tween 80 in distilled water) controls and t is the mean edema volume for the drug treated group.

mice = test: Drug Effects on Phenylbenzoquinone-induced Writhing in Mice; format: in vivo, Male Swiss albino mice; conditions: p.o., PBQ i.p. 60 minutes after dosing, writhes in 15 min
Experimental: A further test used to determine the utility of the compounds of the present invention is designated: Drug Effects on Phenylbenzoquinone-induced Writhing in Mice
The objective of this test is to determine the ability of test drugs to inhibit the nociceptive (pain) response of mice injected with a chemical irritant. This test is a primary screen for both peripheral and centrally acting analgesic drugs.
Male Swiss albino mice (15-25 g). The animals are fasted for 18 hours prior to use but have free access to water.
Drug Preparation and Administration:
Drugs are dissolved or suspended according to their solubility in 0.5% Tween 80 in distilled water. They are administered by gastric gavage in a volume of 5 mL/kg. […]
A modification of the method of Siegmund et al, Proc. Soc. Exp. Biol. Med., 95, 729-731 (1957) is used. Groups of 5 mice are dosed with the test compound or vehicle control. […] The number of writhing or abdominal squirming movements made by each mouse during the following 15 min. period is counted. The experiment is repeated with another group of 5 mice and the mean numbr of writhes per mouse for a group of 10 mice is calculated.
Drug treated and vehicle-treated control groups are compared and the percentage protection conferred by the drug is calculated: [formula] where c=mean number of writhes in the control group where t=mean number of writhes in the test drug group

Row | SMILES | Preventative Adjuvant Edema, percent inhibition (rats; 10 mg/kg) | Phenylquinone Writhing in Mice, percent inhibition (mice; 10 mg/kg) | Preventative Adjuvant Edema, percent inhibition (rats; 25 mg/kg) | Phenylquinone Writhing in Mice, percent inhibition (mice; 200 mg/kg)
1 | C/C=C\c1c(F)ccc2c3c([nH]c12)C(CC)(CC(=O)O)OCC3 (stereo not shown) [Example 1, (Z)-1-Ethyl-7-fluoro-1,3,4,9-tetrahydro-8-(1-propenyl)pyrano[3,4-b]indole-1-acetic Acid, 1,2-Ethanediamine Salt] | 69% | 32% |  | 
2 | C/C=C\c1cccc2c3c([nH]c12)C(CC)(CC(=O)O)OCC3 (stereo not shown) [Example 2, (Z)-1-Ethyl-8-(1-propenyl)-1,3,4,9-tetrahydropyrano[3,4-b]indole-1-acetic Acid] |  |  | 73% | 11%
